Patent publication US8927717B1, “Thiochromeno[2,3-c]quinolin-12-one derivatives, preparation method and application thereof” (National Defense Medical Center, priority 2014, dated 2015)

Key:
CCRF-CEM = assay type: cell-based; settings: Leukemia; 10^−5 molar; 48 hours; SRB
HL-60(TB) = assay type: cell-based; settings: Leukemia; 10^−5 molar; 48 hours; SRB
K-562 = assay type: cell-based; settings: Leukemia; 10^−5 molar; 48 hours; SRB
MOLT-4 = assay type: cell-based; settings: Leukemia; 10^−5 molar; 48 hours; SRB
RPMI-8226 = assay type: cell-based; settings: Leukemia; 10^−5 molar; 48 hours; SRB
SR = assay type: cell-based; settings: Leukemia; 10^−5 molar; 48 hours; SRB
A549/ATCC = assay type: cell-based; settings: Non-small cell lung cancer; 10^−5 molar; 48 hours; SRB
HOP-62 = assay type: cell-based; settings: Non-small cell lung cancer; 10^−5 molar; 48 hours; SRB
HOP-92 = assay type: cell-based; settings: Non-small cell lung cancer; 10^−5 molar; 48 hours; SRB
NCI-H226 = assay type: cell-based; settings: Non-small cell lung cancer; 10^−5 molar; 48 hours; SRB
NCI-H23 = assay type: cell-based; settings: Non-small cell lung cancer; 10^−5 molar; 48 hours; SRB
NCI-H460 = assay type: cell-based; settings: Non-small cell lung cancer; 10^−5 molar; 48 hours; SRB
NCI-H522 = assay type: cell-based; settings: Non-small cell lung cancer; 10^−5 molar; 48 hours; SRB
COLO 205 = assay type: cell-based; settings: Colon cancer; 10^−5 molar; 48 hours; SRB
HCC-2998 = assay type: cell-based; settings: Colon cancer; 10^−5 molar; 48 hours; SRB
HCT-116 = assay type: cell-based; settings: Colon cancer; 10^−5 molar; 48 hours; SRB
HCT-15 = assay type: cell-based; settings: Colon cancer; 10^−5 molar; 48 hours; SRB
HT29 = assay type: cell-based; settings: Colon cancer; 10^−5 molar; 48 hours; SRB
KM12 = assay: cells; assay type: cell-based; settings: Colon cancer; 10^−5 molar; 48 hours; SRB
SW-620 = assay type: cell-based; settings: Colon cancer; 10^−5 molar; 48 hours; SRB
SF-268 = assay type: cell-based; settings: CNS cancer; 10^−5 molar; 48 hours; SRB
SF-295 = assay type: cell-based; settings: CNS cancer; 10^−5 molar; 48 hours; SRB
SF-539 = assay type: cell-based; settings: CNS cancer; 10^−5 molar; 48 hours; SRB
SNB-19 = assay type: cell-based; settings: CNS cancer; 10^−5 molar; 48 hours; SRB
SNB-75 = assay type: cell-based; settings: CNS cancer; 10^−5 molar; 48 hours; SRB
U251 = assay type: cell-based; settings: CNS cancer; 10^−5 molar; 48 hours; SRB
LOX IMVI = assay type: cell-based; settings: Melanoma; 10^−5 molar; 48 hours; SRB
MALME-3M = assay type: cell-based; settings: Melanoma; 10^−5 molar; 48 hours; SRB
M14 = assay type: cell-based; settings: Melanoma; 10^−5 molar; 48 hours; SRB
MDA-MB-435 = assay type: cell-based; settings: Melanoma; 10^−5 molar; 48 hours; SRB
SK-MEL-2 = assay type: cell-based; settings: Melanoma; 10^−5 molar; 48 hours; SRB
SK-MEL-28 = assay type: cell-based; settings: Melanoma; 10^−5 molar; 48 hours; SRB
SK-MEL-5 = assay type: cell-based; settings: Melanoma; 10^−5 molar; 48 hours; SRB
UACC-257 = assay type: cell-based; settings: Melanoma; 10^−5 molar; 48 hours; SRB
UACC-62 = assay type: cell-based; settings: Melanoma; 10^−5 molar; 48 hours; SRB
IGROV1 = assay type: cell-based; settings: Ovarian cancer; 10^−5 molar; 48 hours; SRB
OVCAR-4 = assay type: cell-based; settings: Ovarian cancer; 10^−5 molar; 48 hours; SRB
OVCAR-5 = assay type: cell-based; settings: Ovarian cancer; 10^−5 molar; 48 hours; SRB
OVCAR-8 = assay type: cell-based; settings: Ovarian cancer; 10^−5 molar; 48 hours; SRB
NCI/ADR-RES = assay type: cell-based; settings: Ovarian cancer; 10^−5 molar; 48 hours; SRB
SK-OV-3 = assay type: cell-based; settings: Ovarian cancer; 10^−5 molar; 48 hours; SRB
786-0 = assay type: cell-based; settings: Renal cancer; 10^−5 molar; 48 hours; SRB
A498 = assay type: cell-based; settings: Renal cancer; 10^−5 molar; 48 hours; SRB
ACHN = assay type: cell-based; settings: Renal cancer; 10^−5 molar; 48 hours; SRB
CAKI-1 = assay type: cell-based; settings: Renal cancer; 10^−5 molar; 48 hours; SRB
RXF 393 = assay type: cell-based; settings: Renal cancer; 10^−5 molar; 48 hours; SRB
SN12C = assay type: cell-based; settings: Renal cancer; 10^−5 molar; 48 hours; SRB
TK-10 = assay type: cell-based; settings: Renal cancer; 10^−5 molar; 48 hours; SRB
UO-31 = assay type: cell-based; settings: Renal cancer; 10^−5 molar; 48 hours; SRB
PC-3 = assay type: cell-based; settings: Prostate cancer; 10^−5 molar; 48 hours; SRB
DU-145 = assay type: cell-based; settings: Prostate cancer; 10^−5 molar; 48 hours; SRB
MCF7 = assay type: cell-based; settings: Breast cancer; 10^−5 molar; 48 hours; SRB
MDA-MB-231/ATCC = assay type: cell-based; settings: Breast cancer; 10^−5 molar; 48 hours; SRB
HS 578T = assay type: cell-based; settings: Breast cancer; 10^−5 molar; 48 hours; SRB
BT-549 = assay type: cell-based; settings: Breast cancer; 10^−5 molar; 48 hours; SRB
T-47D = assay type: cell-based; settings: Breast cancer; 10^−5 molar; 48 hours; SRB
MDA-MB-486 = assay type: cell-based; settings: Breast cancer; 10^−5 molar; 48 hours; SRB
60 cancer cell lines = assay: NCI 60-cell screen, SRB, whole panel (mean, delta, range); assay type: cell-based; settings: 10^−5 molar, 48 hours, SRB

## CNc1nc2ccccc2c2c(=O)c3cc(Cl)ccc3sc12 [Compound N1, 10-Chloro-6-methylamino-12H-thiochromeno[2,3-c]quinolin-12-one]
CCRF-CEM
  Growth percent CCRF-CEM: 79.77%
HL-60(TB)
  Growth percent HL-60(TB): 131.66%
K-562
  Growth percent K-562: 40.69%
MOLT-4
  Growth percent MOLT-4: 86.86%
RPMI-8226
  Growth percent RPMI-8226: 93.10%
SR
  Growth percent SR: 47.76%
A549/ATCC
  Growth percent A549/ATCC: 51.68%
HOP-62
  Growth percent HOP-62: 79.39%
HOP-92
  Growth percent HOP-92: 59.15%
NCI-H226
  Growth percent NCI-H226: 73.53%
NCI-H23
  Growth percent NCI-H23: 44.39%
NCI-H460
  Growth percent NCI-H460: 73.84%
NCI-H522
  Growth percent NCI-H522: 97.00%
COLO 205
  Growth percent COLO 205: 94.82%
HCC-2998
  Growth percent HCC-2998: 105.34%
HCT-116
  Growth percent HCT-116: 32.49%
HCT-15
  Growth percent HCT-15: 68.73%
HT29
  Growth percent HT29: 114.79%
KM12
  Growth percent KM12: 68.75%
SW-620
  Growth percent SW-620: 84.37%
SF-268
  Growth percent SF-268: 70.58%
SF-295
  Growth percent SF-295: 89.04%
SF-539
  Growth percent SF-539: 59.86%
SNB-19
  Growth percent SNB-19: 96.48%
SNB-75
  Growth percent SNB-75: 67.29%
U251
  Growth percent U251: 85.19%
LOX IMVI
  Growth percent LOX IMVI: 44.95%
MALME-3M
  Growth percent MALME-3M: 72.46%
M14
  Growth percent M14: 105.85%
MDA-MB-435
  Growth percent MDA-MB-435: 84.97%
SK-MEL-2
  Growth percent SK-MEL-2: 110.10%
SK-MEL-28
  Growth percent SK-MEL-28: 83.41%
SK-MEL-5
  Growth percent SK-MEL-5: 80.13%
UACC-257
  Growth percent UACC-257: 91.23%
UACC-62
  Growth percent UACC-62: 77.66%
IGROV1
  Growth percent IGROV1: 67.97%
OVCAR-4
  Growth percent OVCAR-4: 71.33%
OVCAR-5
  Growth percent OVCAR-5: 86.91%
OVCAR-8
  Growth percent OVCAR-8: 31.61%
NCI/ADR-RES
  Growth percent NCI/ADR-RES: 70.95%
SK-OV-3
  Growth percent SK-OV-3: 88.67%
786-0
  Growth percent 786-0: 95.51%
A498
  Growth percent A498: 82.89%
ACHN
  Growth percent ACHN: 84.47%
CAKI-1
  Growth percent CAKI-1: 68.09%
RXF 393
  Growth percent RXF 393: 84.52%
SN12C
  Growth percent SN12C: 92.52%
TK-10
  Growth percent TK-10: 81.21%
UO-31
  Growth percent UO-31: 65.34%
PC-3
  Growth percent PC-3: 61.41%
DU-145
  Growth percent DU-145: 80.29%
MCF7
  Growth percent MCF7 (Table 2: MCF): 23.26%
MDA-MB-231/ATCC
  Growth percent MDA-MB-231/ATCC: 66.58%
HS 578T
  Growth percent HS 578T: 82.63%
BT-549
  Growth percent BT-549: 108.49%
T-47D
  Growth percent T-47D: 42.13%
MDA-MB-486
  Growth percent MDA-MB-486: 8.75%
60 cancer cell lines; delta over the cell panel
  Growth percent, Delta: 66.31%
60 cancer cell lines; mean over the cell panel
  Growth percent, Mean: 75.06%
60 cancer cell lines; range over the cell panel
  Growth percent, Range: 122.91%
other
  melting point: 237 to 238 °C
